From BindingDB's records for PubMed 35073486 (The University of Queensland, 2022) come the findings set out here.

Series [1] in a line: Inhibition of P-gp mediated doxorubicin resistance in human SW620/AD300 cells overexpressing P-gp in presence of doxorubicin measured after 52 hrs by MTT assay. A general note: Tetrazolium assays rely on reduction of a dye to a coloured formazan, in cell work by metabolically active cells.
Series [2] is described as follows: Inhibition of P-gp mediated doxorubicin resistance in human SW620/AD300 cells overexpressing P-gp measured after 48 hrs by MTT assay.

For `C[C@H]1O[C@H](CC(=O)O)Cc2c1c(O)c1c3c(c4n(c23)[C@@H]([C@@H](C)O)CC4)C=CC1=O`, the 50% inhibitory concentration (IC50) (usually the concentration that gives 50% inhibition) in series [1] was 1530 nM. The same measure, in the same setting: the same measure for `C[C@H]1O[C@]2(C)CC(=O)O[C@]2(C)c2c1c(O)c1c3c(c4n(c23)[C@@H]([C@@H](C)O)CC4)C=CC1=O`: 7580 nM.

Take `COC(=O)C[C@H]1Cc2c(c(O)c3c4c(c5n(c24)[C@H]([C@@H](C)O)CC5)C=CC3=O)[C@H](C)O1`: the 50% inhibitory concentration (IC50) in series [1] is 1200 nM. As to `C[C@@H]1OC(CC(=O)O)=Cc2c1c(O)c1c3c(c4n(c23)[C@H]([C@@H](C)O)CC4)C=CC1=O`, in series [1], the half-maximal inhibitory concentration (IC50) stood at 1010 nM. The same measure, in the same setting: the same measure for `C[C@H]1OC(CC(=O)O)=Cc2c1c(O)c1c3c(c4n(c23)[C@H]([C@@H](C)O)CC4)C=CC1=O`: 1440 nM; for `C[C@@H]1O[C@@H](CC(=O)O)C(=O)c2c1c(O)c1c3c(c4n(c23)[C@H]([C@@H](C)O)CC4)C=CC1=O`: 1480 nM. On the same count and under the same terms, to `C[C@@H](O)[C@@H]1CCc2c3c4c(c(O)c(O)c(C[C@@H](O)CC(=O)O)c4n21)C(=O)C=C3` belongs 4490 nM; to `C[C@H]1Oc2c(O)c3c4c(c5n(c4c2C[C@H](CC(=O)O)O1)[C@H]([C@@H](C)O)CC5)C=CC3=O`, 5040 nM. For the compound `COc1cccc2c1C(=O)c1c(O)c3c(c(O)c1C2=O)C[C@@](O)(C(=O)CO)C[C@@H]3O[C@H]1C[C@H](N)[C@H](O)[C@H](C)O1` [Adriamycin], inhibition in series [2] was half-maximal at 5.75 µM (IC50).
